{
  "source": "patent US7273717B2",
  "about": "(priority 2003, dated 2007)",
  "key": {"[1]": {"target": "GS-9005 hydrolase A", "format": "biochemical, human", "settings": "pH 6.5; read-out: Inhibition profile IC50, 9005 Hydrolase A"}, "[2]": {"test_system": "GS-9005 hydrolase B", "format": "biochemical, human"}, "[3]": {"settings": "pH 6.5, read-out: Inhibition profile IC50, 9005 Hydrolase B"}, "[4]": {"settings": "read-out: concentration at which GS-9005 hydrolase B is inhibited by 50%"}},
  "note": "Like-named read-outs stand apart in the source and are kept apart here. Peptide text beside a SMILES is read from it. * marks the point of attachment. Cbz = O=C(OCc1ccccc1)*",
  "data": [
    {"smiles": "O=c1oc(Cl)c(Cl)c2ccccc12", "note": "[3,4 DCI, 3,4 dichloroisocoumarin]", "values": [
      {"measurement": "IC50", "setting": "[1]", "result": "> 150", "unit": "µM"},
      {"measurement": "inhibition of GS-9005 hydrolase B (in words)", "setting": "[2]", "result": "inhibited"},
      {"measurement": "IC50", "setting": "[2]; [3]", "result": 4, "unit": "µM"},
      {"measurement": "IC50", "setting": "[2]; [4]", "result": "~4", "unit": "µM"}
    ]},
    {"smiles": "O=C[C@@H]1CCCN1C(=O)[C@@H]1CCCN1C(=O)OCc1ccccc1", "note": "[Cbz-pro-pro-COH, Carboxybenzoyl-Pro-Pro-COH] (Cbz-Pro-Pro-aldehyde)", "values": [
      {"measurement": "IC50", "setting": "[2]; [3]", "result": "> 100", "unit": "µM"},
      {"measurement": "IC50", "setting": "[2]; [4]", "result": "> 100", "unit": "µM"}
    ]},
    {"smiles": "CCOP(=O)(OCC)Oc1ccc([N+](=O)[O-])cc1", "note": "[paraoxon]", "values": [
      {"measurement": "IC50", "setting": "[1]", "result": 0.03, "unit": "µM"},
      {"measurement": "IC50", "setting": "[2]; [3]", "result": 0.02, "unit": "µM"},
      {"measurement": "IC50", "setting": "[2]; [4]", "result": "~0.02", "unit": "µM"}
    ]}
  ]
}
